# Data taken from patent US20110046079A1, “Use of Proton Pump Inhibitors as Drug Delivery Adjuvants” (priority 2008, published 2011).
# “And” between values parts separate entries of the source, which are not always exact repeats. Equal entries are not always repeated.
# How the values were obtained:
# healthy controls [1] = assay: Sucrose leak test before and after five days of omeprazole or famotidine; format: in vivo, human
# Description: An 8 hour overnight urine sample was collected in a container with 5 ml of 10% thymol in isopropanol as antimicrobial preservative. A courier service picked up urine containers at the patient's home and delivered them to the research laboratory. Total urine volume and refractive index were measured and recorded. […] This amount of sucrose equates to the amount of sucrose which leaked from the upper GI lumen.
# H-2 blockers such as PEPCID® (famotidine) also cause a GI leak. The instant study was first performed with 20 subjects, all healthy controls. Randomly 10 were put on PPIs (20 mg of omeprazole), 10 on H-2 blockers (40 mg of famotidine). These amounts are standard for acid suppression therapy. […] They were given doses of these drugs in the morning for five days. A sucrose leak test was done the night of the fifth and last day.
# Therefore, a second H-2 blocker study was performed looking at leak in an n=5 group but doing evening doses of famotidine and maintaining the other aspects of the above study, with the post H-2 blocker leak test performed again the night of the 5th dose, but now only with a 4-6 hours after the 5th and final dose.
# [2] = tested on: rat gastric corpus mucosa; assay: Transepithelial flux of 14C-labeled probes (mannitol, sucrose, polyethylene glycol) before and after PPI; details: for Post-Omeorazole transmucosal flux / Pre-Omeorazole transmucosal flux: mean +/- SE, 3 experiments; for Pre-Omeorazole transmucosal flux: before 200 μM omeprazole
# Description: In each experiment, one adult male Sprague Dawley rat was sacrificed by decapitation. The stomach was removed, flushed, and stripped of its outer serosal membrane, while being frequently moistened with chilled, unbuffered saline. Two pieces of corpus mucosa were mounted in modified Ussing chambers, with exposed tissue surface area of 1.13 cm^2. Chambers were connected to gas-lift reservoirs, with a fluid volume of 17 mL per hemichamber. The mucosal hemichamber was filled with unbuffered saline (with 17 mM glucose) and kept aerated and perfused with 100% O2 at 37° C. […] Water-jacketed reservoirs maintained chamber saline at 37° C.
# KRB was adjusted to a pH of 7.3-7.4.
# Unbuffered saline was gassed with 100% O2 and was used to bathe the mucosal side of the gastric mucosa.
# Approximately 30 minutes after tissues were mounted in Ussing chambers, dibutyrl cyclic AMP (dB-cAMP) (Sigma, St. Louis, Mo.) was added to the serosal sides of both chambers to a concentration of 1 mM in order to stimulate acid output by the tissue.
# Three experiments were performed with each PPI, examining gastric permeability to ^14C-mannitol.
# Three experiments were performed at each omeprazole concentration.
# [3] = tested on: rat gastric corpus mucosa; assay: Transepithelial drug flux studies (3H-digoxin, 14C-phenytoin, mucosal to serosal) before and after omeprazole or DMSO; format: in vitro ADME; details: 0.1 mM probe
# Description: Sprague Dawley male rats weighing approximately 400 grams were sacrificed by decapitation and the stomach was quickly removed, cut along the greater curvature, and flushed of luminal contents. The serosal membrane was then stripped from the corpus region and two equal sized pieces of corpus mucosa were mounted in two separate Ussing chambers with exposed tissue areas of 1.13 cm^2. Chambers were connected to 15 mL gas-lift reservoirs filled with un-buffered saline aerated with 100% O2 and bicarbonate-buffered saline aerated with 95% O2/5% CO2 on the mucosal and serosal sides, respectively. Saline temperature was held constant at 37° C. by a jacketed water bath surrounding the reservoirs. 30 minutes at 37° C. was allowed for tissue equilibration. In paired experiments, one tissue served as (vehicle) ‘control’, and the other as omeprazole-treated ‘experimental’.
# After 30 minutes of tissue equilibration time in Ussing chambers, dibutyrl cyclic AMP (dBcAMP) (Sigma) was added to a final concentration of 1 mM to the serosal fluid chambers to stimulate acid secretion. […] The addition of the isotope marked the beginning of the flux period. 150 μL or 250 μL samples were taken from the serosal fluid compartment (opposite from which the isotope was added) for liquid scintillation counting (LSC). Samples were initially taken at 30 minute intervals for 90 minutes for the ^14C-phenytoin flux or at 15 minute intervals for 75 minutes for the ^3H-digoxin flux to establish the basal permeability rate (ρmoles/min/cm^2) across the tissue. 200 μM omeprazole (Sigma) (in DMSO) was then added to the mucosal and serosal sides of one chamber and an equivalent amount of DMSO (Sigma) was also added to both sides of the control chamber. Another series of serosal fluid samples were taken for LSC at 15 or 30 minute intervals for the remaining 60 minutes of ^3H-digoxin or ^14C-phenytoin flux experiments, respectfully, to determine flux rate of the radiolabeled drugs after omeprazole addition. In all cases of fluid sampling for liquid scintillation counting, an equal amount of fresh buffered saline was added back to the serosal side to prevent hydrostatic gradients from developing across the tissue. The flux of each isotope (ρmole/min/cm^2) was determined by calculating the linear regression slope of the graph of cpm versus time, and converting cpm to picomoles after determining the specific activity of the drug in the mucosal fluid.
# To observe if the omeprazole-induced leak allows for permeation of certain small molecule drugs, ^3H-digoxin was added to the mucosal fluid compartment and saline samples were taken at 15 minute intervals from the serosal fluid compartments for a 135-minute flux period. Omeprazole and/or DMSO were added to their respective tissues 75 minutes after the addition of the isotope. Radioactivity present in the serosal fluid compartment was measured as a function of time before and after the addition of omeprazole or DMSO.
# [4] = tested on: rat gastric corpus mucosa; assay: Acid secretion (mucosal fluid pH) of dB-cAMP stimulated tissue in Ussing chambers; details: ex vivo addition; 200 μM omeprazole, 200 μM lansoprazole, 100 μM esomeprazole
# Description: Water-jacketed reservoirs maintained chamber saline at 37° C.
# In order to confirm stimulation of acid secretion by secretagogue addition and to verify the efficacy of the PPI, mucosal fluid compartment pH was recorded at intervals throughout the experiment with a manual electrode (Denver Instruments, Denver, Colo.). Ag/AgCl voltage and current electrodes were used to measure PD (potential difference) and ISC (short circuit current) approximately every five minutes for the duration of the experiment, as previously described (Hameed et al. (2004) Dig. Dis. Sci., 49:1381-1386), using two single-channel current/voltage clamps (McGrath Research and Technology). Ohm's Law was used to calculate transepithelial electrical resistance across the tissue.
# Mucosal and serosal saline pH measurements were taken at approximately five minute intervals using a manual electrode (Denver Instruments) to ensure that the tissue was secreting acid. Mucosal pH readings were also taken before and after the addition of omeprazole to document the action of omeprazole on inhibiting acid secretion. Tissue viability was confirmed at the end of each experiment by tissue exposure to 10 mM amiloride in the mucosal fluid compartment in order to inhibit short circuit current.
# [5] = tested on: first-time-presenting GERD patients; assay: Sucrose permeability test before and at the end of an 8 week course of esomeprazole (NEXIUM); format: in vivo, human
# Description: Patients with GERD were recruited from a primary care practice, to which they were presenting for the first time with their disease. […] With the exception of their GERD, these patients met the above criteria at the time of their recruitment, and were recruited in a similar manner. […] An 8 hour overnight urine sample was collected in a container with 5 ml of 10% thymol in isopropanol as antimicrobial preservative. A courier service picked up urine containers at the patient's home and delivered them to the research laboratory. Total urine volume and refractive index were measured and recorded. […] This amount of sucrose equates to the amount of sucrose which leaked from the upper GI lumen. The next study posed the question of whether PPI therapy would improve barrier function in the upper GI tract by allowing for reduction of mucosal inflammation and damage ensuing from esophagitis and gastritis. An early hypothesis was that PPI therapy would improve barrier function in the upper GI tract of first-time-presenting GERD patients, by allowing for reduction of mucosal inflammation and damage ensuing from any esophagitis or gastritis. […] As previously mentioned, this was in contrast to an earlier study (Mullin et al. (2006) Dig. Dis. Sci., 51:2326-36) which utilized GERD patients who had been previously diagnosed and under the care of a gastroenterologist. […] A 4 week follow up check was performed on all patients, and all reported significant symptom improvement with mild if any side effects.
# healthy controls [6] = assay: Sucrose permeability test, time course and reversibility of the esomeprazole-induced leak; format: in vivo, human; details: for durations with statistically significant elevation of sucrose leak: esomeprazole 40 mg once/day for 1, 2, 3, 5, 7 or 9 days, P<0.05
# Description: Healthy controls were recruited without regard to gender or ethnicity, from an age range of 18-80. Their exclusion criteria were no prior gastrointestinal surgery and no current gastrointestinal disease. Because of the nature of the permeability test being used, diabetics and those with renal insufficiency were likewise excluded. Those participating did so only after personally signing an informed consent that was approved prior by the Lankenau Hospital Institutional Review Board. […] An 8 hour overnight urine sample was collected in a container with 5 ml of 10% thymol in isopropanol as antimicrobial preservative. A courier service picked up urine containers at the patient's home and delivered them to the research laboratory. Total urine volume and refractive index were measured and recorded. […] This amount of sucrose equates to the amount of sucrose which leaked from the upper GI lumen. The next study was begun to reduce the (disease) variables that may be at play in working with a GERD population and simultaneously assess the time course with which a PPI leak may establish. As described above, a volunteer group of healthy controls without any active GI disease or prior surgeries was recruited. Volunteers were randomly assigned to duration groups of 1, 2, 3, 5, 7 or 9 days. […] As in FIG. 2, a rising bar indicates greater leak in the second test, a falling bar indicates a lower leak at the second test. […] However the average leak of the second test was greater than the first by the second day and then consistently climbed further out through the nine days. […] The figure gives the average leak of the first (pre esomeprazole) test, the second test and the third (4 day post-esomeprazole) test. Although the second test is statistically different from the first or the third (P<0.01), the third test is not statistically different from the first, evidencing the relative rapid reversibility of the leak phenomenon.
# [7] = 0.1 mM 14C-labeled probe, after 200 μM omeprazole
smiles,measurement,setting,value
NC(N)=Nc1nc(CSCCC(N)=NS(N)(=O)=O)cs1 [famotidine],pre-med sucrose leak,"healthy controls [1]; baseline before medication, n=10 per group, SEM",50 mg
same,"pre H-2 blocker leak, second study","healthy controls [1]; baseline, n=5, SEM",46 mg
same,"post H-2 blocker leak, second study","healthy controls [1]; evening doses of famotidine, test 4-6 hours after 5th dose, n=5, P=0.03",132 mg
same,post med sucrose leak,"healthy controls [1]; morning doses for five days (20 mg omeprazole or 40 mg famotidine), test night of fifth day, n=10",110 mg
OC[C@@H](O)[C@@H](O)[C@H](O)[C@H](O)CO [[D]-Mannitol],% Increase in Flux,[2]; [7],68.72% and 68.72 +/− 8.32%
same,Post-Omeorazole transmucosal flux,[2]; [7],37.81 +/− 1.32 ρmoles/min/cm^2
same,Pre-Omeorazole transmucosal flux,[2]; 0.1 mM 14C-labeled probe,22.45 +/− 0.61 ρmoles/min/cm^2
same,% Increase in Flux After Omeprazole,[3]; 200 μM omeprazole,68.7% ± 8.4%
same,Post-Omeprazole Flux Value,"[3]; after 200 μM omeprazole, corrected by TLC",31.6 ± 3.9 ρmole/min/cm^2
same,Pre-Omeprazole Flux Value,"[3]; before 200 μM omeprazole, 3 experiments",21.2 ± 5.3 ρmole/min/cm^2
same,% Increase in Flux After DMSO,[3]; vehicle control tissue,23.0% ± 15.3%
same,Post-DMSO Flux Value,"[3]; vehicle control tissue, corrected by TLC",27.2 ± 2.4 ρmole/min/cm^2
same,Pre-DMSO Flux Value,"[3]; vehicle control tissue, mean ± SEM, 3 experiments",22.7 ± 3.3 ρmole/min/cm^2
COc1ccc2nc([S@@+]([O-])Cc3ncc(C)c(OC)c3C)[nH]c2c1 [esomeprazole],% Increase in Flux of 14C-[D]-mannitol,[2]; 100 μM PPI,101.62%
same,% Increase in Flux of 14C-[D]-mannitol,"[2]; 100 μM PPI, listed as Esomeprazole",101.62 +/− 10.04%
same,effect on acid secretion (rate of mucosal acidification),[4],inhibited acid secretion
same,average initial sucrose leak,"[5]; before esomeprazole, 26 patients, mean, SEM",72 mg
same,"average initial leak, all patients","[5]; before esomeprazole, all 37 patients",179 mg
same,patients whose post-NEXIUM sucrose leak was smaller,[5]; end of 8 week course vs before,4 of 25
same,patients whose post-NEXIUM sucrose leak was greater,"[5]; end of 8 week course vs before, total sucrose in overnight urine",21 of 26
same,patients with increased leak above the 200 mg threshold level,[5]; end of 8 week esomeprazole 40 mg/day,14 of 21
same,mean final sucrose leak,"[5]; end of 8 week esomeprazole 40 mg/day, 26 patients, mean, SEM",325 mg
same,"final leak, all patients","[5]; end of 8 week esomeprazole 40 mg/day, all 37 patients",307 mg
same,sucrose leak in third test (reversibility),"healthy controls [6]; 4 days after finishing 5, 7 or 9 day esomeprazole course, n=9",decreases to near baseline
same,"leak in second test greater than first (pre esomeprazole) test, average",healthy controls [6]; day 9 of esomeprazole 40 mg once/day,~400 mg
same,durations with statistically significant elevation of sucrose leak,healthy controls [6],fifth day
same,durations with statistically significant elevation of sucrose leak,healthy controls [6]; listed as NEXIUM®,"5, 7 and 9 day durations"
"Cc1c(OCC(F)(F)F)ccnc1C[S+]([O-])c1nc2ccccc2[nH]1 (centres unmarked) [lansoprazole, 2-(((3-methyl-4-(2,2,2-trifluoro-ethoxy)-2-pyridinyl)methyl)sulfinyl)-1H benzimidazole]",% Increase in Flux of 14C-[D]-mannitol,[2]; 200 μM PPI,83.35%
same,% Increase in Flux of 14C-[D]-mannitol,"[2]; 200 μM PPI, listed as Lansoprazole",83.35 +/− 20.71%
same,effect on acid secretion (rate of mucosal acidification),[4],inhibited acid secretion
OC[C@H]1O[C@@](CO)(O[C@H]2O[C@H](CO)[C@@H](O)[C@H](O)[C@H]2O)[C@@H](O)[C@@H]1O [Sucrose],Post-Omeorazole transmucosal flux,[2]; [7],24.19 +/− 4.67 ρmoles/min/cm^2
same,Pre-Omeorazole transmucosal flux,[2]; 0.1 mM 14C-labeled probe,11.71 +/− 3.39 ρmoles/min/cm^2
